# Values of other authors in US20260224647A1, “Microbial compositions for treating joint inflammation” (Katholieke Universiteit Leuven, priority 2023, published 2026).
# Test system: rheumatoid arthritis
# Conditions: twice daily administration
substance,measurement,value
Lactobacillus rhamnosus GG,Activity of rheumatoid arthritis,no statistically significant differences
